Laboratory results from patent US9233978B2, “6-fused heteroaryldihydropyrimidines for the treatment and prophylaxis of hepatitis B virus infection” (Hoffmann-La Roche Inc., priority 2014, dated 2016).
Values after ≈ are worked out from the molar mass of the structure shown. Like-named read-outs stand apart in the source and are kept apart here.

Tests used:
[1] = Lysa solubility; format: physicochemical; settings: phosphate buffer, pH 6.5, aqueous buffer, thermodynamic from solid, 0.05 M phosphate buffer (pH 6.5)
In short: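 Duplicate samples dried from 10 mM DMSO stocks, taken up in 0.05 M phosphate buffer pH 6.5, stirred 1 h, shaken 2 h and left overnight. Filtrate and 1/10 dilution quantified by direct UV or HPLC-UV, in μg/mL; above 80% of the calculated maximum, reported as greater than that value.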

[2] = tested on: HBV; test: Anti-HBV activity in vitro, HepG2.2.15 cells, extracellular HBV DNA by qPCR; format: cell-based; settings: Hepatitis B virus, HepG2.2.15, 120 h
In short: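 Extracellular HBV DNA in culture supernatant was measured by qPCR after nucleic acid extraction. The supernatant came from constitutively replicating HepG2.2.15 cells exposed for five days to half-log-diluted compounds, with DMSO at 0.5% final. Cells had been plated overnight at 37 °C beforehand.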

[3] = tested on: CYP3A4; test: Cytochrome P450 induction screening assay, mRNA induction in human cryopreserved hepatocytes; format: in vitro ADME; settings: CYP3A4 mRNA relative induction, 24 hours, test compound up to 10 μM
Experimental: Human cryopreserved hepatocytes (Life Technologies, Carlsbad, USA) were thawed and cultured in collagen I coated 96-well plates with a density of 52,000 cells/well. After attachment, medium was changed and cells were pre-cultured overnight in hepatocyte maintenance medium (HMM; Lonza, Switzerland).
Test compounds were dosed to the cells next morning at an indicated concentration (up to 10 μM) in HMM culture media containing gentamycin and a constant 0.1% DMSO. Similarly, dilutions of the positive inducer compounds omeprazole (prototypical inducer of human CYP1A2; final concentrations: 1 and 10 μM), phenobarbital (prototypical inducer of human CYP2B6; final concentrations: 100 and 1000 μM) and rifampicin (prototypical inducer of human CYP3A4; final concentrations: 1 and 10 μM) were prepared from 1000 fold DMSO stock solutions in HMM containing gentamycin. Medium change was then performed and cells were exposed for 24 hours to test compounds, positive inducer compounds, or vehicle (0.1% DMSO), respectively.
At the end of the compound exposure period, medium was removed and cells lysed using 100 μL/well MagNA Pure LC RNA isolation tissue lysis buffer (Roche Diagnostics AG, Rotkreuz, Switzerland). Plates were then sealed and frozen at −80° C. until further workup.
mRNA isolation was performed using the MagNA Pure 96 system (Roche Diagnostics AG, Rotkreuz, Switzerland) and the respective cellular RNA large volume kit (Roche Diagnostics AG, Rotkreuz, Switzerland) from thawed samples diluted 1:1 with PBS. The volume of the cell lysis and an elution volume of 100 μL were used. 20 μl of the resulting mRNA suspension was then used for reverse transcription using 20 μl of the transcript or first stand cDNA synthesis kit (Roche prime Supply, Mannheim, Germany). The resulting cDNA was diluted with 40 μl of H2O before using for qRT-PCR. qRT-PCR was performed by using the forward and the reverse primer, the corresponding UPL (all from Microsynth, Balgach, Switzerland) and the Taqman Fast advanced master mix (Applied Biosystems), on an ABI 7900 machine (Applied Biosystems).
qRT-PCR Ct-values for the respective P450s were put into relation to the Ct-value of RN18S1 (microsynth, Balgach, Switzerland) of the same sample. Doing so, a respective Δct-value was calculated. Using the average of all Δct-values for the vehicle control samples, a ΔΔct-value was calculated for each sample (ΔΔct-value(sample)=Δct-value(sample)−average of Δct-value of all vehicle controls). The fold induction of the respective sample was calculated as 2^(−ΔΔct). The individual fold induction values were then averaged per treatment condition (usually n=3 biological replicates).
Relative induction values to the respective positive inducer compound condition (10 μM omeprazole for CYP1A2; 1000 μM Phenobarbital for CYP2B6; 10 μM rifampicin for CYP3A4) were then calculated from the fold induction values as follows: Relative induction (%)=100×(T−V)/(P−V)

[4] = Human microsomal metabolic stability; format: in vitro ADME; settings: human microsomes 0.5 mg/mL, 1 μM test compound, NADPH, 37° C., pH 7.4, 0-30 minutes
In short: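 1 μM compound with 0.5 mg/mL human liver microsomal protein in 100 mM phosphate pH 7.4 at 37° C, started with 1 mM NADPH or a NADPH-regenerating system. Sampled at 0–30 min, quenched in cold methanol with tolbutamide internal standard; remaining parent quantified by LC-MS/MS.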

[5] = tested on: HepDE19 cells; test: Cytotoxicity in HepDE19 cells (CCK-8) and selectivity index; format: cell-based; settings: CC50 (HepDE19) value / EC50 (HepG2.2.15) value
Text: (§1) HepG2.2.15 and HepDE19 are stably-transfected cell lines containing the HBV genome. Both cell lines are derived from the hepatoblastoma cell line Hep G2 (American Type Culture Collection, ATCC® HB-8065™) by the published procedures described in references: MA Selles et al. Proc. Natl. Acad. Sci. USA 1987, 84, 1005-1009 and H Guo et al. Journal of Virology 2007, 81, 12472-12484, respectively. Both cell lines were maintained in Dulbecco's modified Eagle's medium (DMEM)-F12 medium supplemented with 10% fetal bovine serum, 100 U/mL penicillin, 100 μg/mL streptomycin, and 0.5 mg/mL of G418.
(§2) HepDE19 cells were seeded into 96-well plates (5×10^3 cells per well) and treated with compounds for EC50 determination. Five days after treatment, cell viability was measured by addition of 20 μL of CCK-8 reagent. Two hours after incubation at 37° C., the absorbance at wavelengths of 450 nm and 630 nm (OD450 and OD630) was recorded by a plate reader. The concentration results in the death of 50% of the host cells (CC50) of each compound were determined.
(§3) The relative effectiveness of the compound in inhibiting viral replication compared to inducing cell death was defined as the selectivity index (CC50 value/EC50 value). Based on CC50 and EC50 data, selectivity indexes were determined.

[6] = as above; format: cell-based; settings: human, HepDE19 cells; CCK-8 cell viability; five days after treatment
Text: as §1, §2, §3

[7] = HepG2.2.15 cells, HBV replication inhibited by 50%, extracellular HBV DNA by qPCR, five days after compound treatment, read-out: EC50

Structure (SMILES)	solubility thermodynamic [1] [µg/mL]	EC50 [2, 7] [nM]	% of Positive control (10 μM Rifampicin) [3] [%]	Human Microsomal Clearance [4] [mL/min/kg]	Selectivity index (CC50/EC50) [5]	CC50 at 5 days [6] [nM]	EC50 [2] [nM]
COC(=O)C1=C(CN2CCN3C(=O)N(C4CC4)C[C@@H]3[C@H]2C(=O)O)NC(c2nccs2)=N[C@H]1c1ccc(F)cc1Cl (racemic) [Example 45, 7-[[(4R)-4-(2-chloro-4-fluoro-phenyl)-5-methoxycarbonyl-2-thiazol-2-yl-1,4-dihydropyrimidin-6-yl]methyl]-2-cyclopropyl-3-oxo-5,6,8,8a-tetrahydro-1H-imidazo[1,5-a]pyrazine-8-carboxylic acid]	> 690	26	20				
CCOC(=O)C1=C(CN2CCN3C(=O)N(C4CC4)C[C@@H]3[C@H]2C(=O)O)NC(c2nccs2)=N[C@H]1c1cccc(F)c1Cl (single isomer, unassigned) [Example 82B]			6	2.7	>50000	> 100000	2
CCOC(=O)C1=C(CN2CCN3C(=O)N(C(C)(C)C)C[C@@H]3[C@H]2C(=O)O)NC(c2nccs2)=N[C@H]1c1cccc(F)c1Cl (single isomer, unassigned) [Example 87B]		1	4.0	5.0	>100000	> 100000	
COC(=O)C1=C(CN2CCN3C(=O)NC[C@@H]3C2)NC(c2nccs2)=N[C@H]1c1ccc(F)cc1Cl [Example 11, Methyl (4R)-6-[[(8aR)-3-oxo-1,2,5,6,8,8a-hexahydroimidazo[1,5-a]pyrazin-7-yl]methyl]-4-(2-chloro-4-fluoro-phenyl)-2-thiazol-2-yl-1,4-dihydropyrimidine-5-carboxylate]		1	17		30635	52000	
CCOC(=O)C1=C(CN2CCN3C(=O)N(CC(C)(C)C(=O)O)C[C@@H]3C2)NC(c2nccs2)=N[C@H]1c1ccc(F)c(F)c1C [Example 22, 3-[(8aS)-7-[[(4S)-4-(3,4-difluoro-2-methyl-phenyl)-5-ethoxycarbonyl-2-thiazol-2-yl-1,4-dihydropyrimidin-6-yl]methyl]-3-oxo-5,6,8,8a-tetrahydro-1H-imidazo[1,5-a]pyrazin-2-yl]-2,2-dimethyl-propanoic acid]		3	0		>34482	> 100000	
COC(=O)C1=C(CN2CCN3C(=O)N(c4ccc(C(=O)O)cc4)C[C@@H]3C2)NC(c2nccs2)=N[C@H]1c1ccc(F)cc1Cl [Example 25, (R)-6-[(S)-2-(4-Carboxy-phenyl)-3-oxo-hexahydro-imidazo[1,5-a]pyrazin-7-ylmethyl]-4-(2-chloro-4-fluoro-phenyl)-2-thiazol-2-yl-1,4-dihydro-pyrimidine-5-carboxylic acid methyl ester]		2	0	0.4			
CCOC(=O)C1=C(CN2CCN3C(=O)N(c4cccc(C(=O)O)c4)C[C@@H]3C2)NC(c2nccs2)=N[C@H]1c1cccc(F)c1Cl [Example 27, (R)-6-[(S)-2-(3-Carboxy-phenyl)-3-oxo-hexahydro-imidazo[1,5-a]pyrazin-7-ylmethyl]-4-(2-chloro-3-fluoro-phenyl)-2-thiazol-2-yl-1,4-dihydro-pyrimidine-5-carboxylic acid ethyl ester]		3	0.2				
COC(=O)C1=C(CN2CCN3C(=O)N(C4CC4)CC3(CC(=O)O)C2)NC(c2nccs2)=N[C@H]1c1ccc(F)cc1Cl (stereo partly drawn) [Example 30, 2-[7-[[(4R)-4-(2-chloro-4-fluoro-phenyl)-5-methoxycarbonyl-2-thiazol-2-yl-1,4-dihydropyrimidin-6-yl]methyl]-2-cyclopropyl-3-oxo-1,5,6,8-tetrahydroimidazo[1,5-a]pyrazin-8a-yl]acetic acid]	610 (≈ 1010 µM)	95	7.3	1.7			
COC(=O)C1=C(CN2CCN3C(=O)N(CC(C)(C)C(=O)O)C[C@@H]3C2)NC(c2nccs2)=N[C@H]1c1ccc(F)c(F)c1C [Example 43, 3-[(8aS)-7-[[(4S)-4-(3,4-difluoro-2-methyl-phenyl)-5-methoxycarbonyl-2-thiazol-2-yl-1,4-dihydropyrimidin-6-yl]methyl]-3-oxo-5,6,8,8a-tetrahydro-1H-imidazo[1,5-a]pyrazin-2-yl]-2,2-dimethyl-propanoic acid]		6	0.2	3.1			
COC(=O)C1=C(CN2CCN3C(=O)N(CC(C)(C)CC(=O)O)C[C@@H]3C2)NC(c2nccs2)=N[C@H]1c1ccc(F)cc1Cl [Example 55, 4-[(8aS)-7-[[(4R)-4-(2-chloro-4-fluoro-phenyl)-5-methoxycarbonyl-2-thiazol-2-yl-1,4-dihydropyrimidin-6-yl]methyl]-3-oxo-5,6,8,8a-tetrahydro-1H-imidazo[1,5-a]pyrazin-2-yl]-3,3-dimethyl-butanoic acid]	470 (≈ 759 µM)	5	0.1		>20000	> 100000	
